Measurements published in patent US10966978B2, “Dose and regimen for HDM2-p53 interaction inhibitors” (Novartis AG, priority 2016, dated 2021).
Where two headings read alike, the source gives them in different places.

Assay: Clinical PK of HDM201 in patients (non-compartmental and population PK), study HDM201X2101
Format: in vivo, human
Settings: for Cmax: read-out: Cmax, Geo Mean (% CV); for AUC(0-t): read-out: AUClast (0-24 h), Geo Mean (% CV); for dose proportionality of PK (AUClast and Cmax): over the dose range studied, single and repeated doses
Protocol: Pharmacokinetic data have been evaluated throughout the course of the dose escalation. Two HDM201 drug variants have been evaluated during the course of the study (refer to the protocol for further details). […] Furthermore, an integrated analysis of all available HDM201 concentrations was conducted using a population approach. The PK of HDM201 was best described by a 1-compartment PK model with a delayed zero- and first-order absorption process, and a linear clearance. Body weight was identified as a statistically significant covariate on apparent central volume of distribution (Vc/F), in which Vc/F increased with increasing body weight.
Inter-patient variability (CV % Geo-mean) in exposure was generally low to moderate. Compartmental population PK modeling of NVP-HDM201 was used to estimate the individual average plasma concentration for Cycle 1 and to allow comparison with preclinical average concentration for tumor stasis derived by PK/PD tumor growth modeling.
The PK of HDM201 have been evaluated in the ongoing single agent Phase I clinical trial in patients with solid tumors and hematological malignancies (HDM201X2101). Patients have been treated with a single dose on Day 1 in a three-week cycle (q3w, regimen 1A), with a single dose on Day 1 and Day 8 in a four-week cycle (d1 and d8 of 4 w cycle, regimen 1B), or with daily dosing for the first 7 or 14 days in a four-week cycle (regimen 2C [q.d., 1 w on/3 w off] or regimen 2A [q.d., 2 w on/2 w off], respectively). PK assessments were conducted following single dose and repeated administration. Preliminary PK parameters from non-compartmental analysis of plasma concentration-time profiles are summarized by dose regimen and tumor type (data cut-off 1 Apr. 2016). PK parameters for Regimen 2A (Day 1 and 14 of Cycle 1 for doses from 1 to 20 mg) and Regimen 1A (Day 1 of Cycle 1 for doses from 12.5 to 350 mg) in solid tumor patients are summarized as representative of the PK for daily and less frequent dosing regimens (Tables 9, 10 and 11).
Following oral dosing (HDM201 capsule, fasted), the median time to reach maximum plasma concentrations ranged from 2.0 to 5.8 h across the dose range (2 to 350 mg). With the daily dosing regimen, HDM201 steady-state was generally reached by Day 8, and accumulation was less than 2-fold. […]
Furthermore, the individual PK data was best described by a 1-compartment PK model with a delayed zero- and first-order absorption process (data cut-off 1 Apr. 2016). […] Body weight was identified as a statistically significant covariate on Vc/F.

[1] = Regimen 1A 12.5 mg, Day 1 single dose, solid malignancies, N = 1
[2] = Regimen 1A 25 mg, Day 1 single dose, solid malignancies, N = 1
[3] = Regimen 1A 50 mg, Day 1 single dose, solid malignancies, N = 4
[4] = Regimen 1A 100 mg, Day 1 single dose, solid malignancies, N = 4
[5] = Regimen 1A 200 mg, Day 1 single dose, solid malignancies, N = 5
[6] = Regimen 2A 1 mg daily, Day 14, solid malignancies, N = 1
[7] = Regimen 2A 2 mg daily, Day 14, solid malignancies, N = 2
[8] = Regimen 2A 4 mg daily, Day 14, solid malignancies, N = 3
[9] = Regimen 2A 15 mg daily, Day 14, solid malignancies, N = 4
[10] = Regimen 2A 15 mg, Day 1 single dose, solid malignancies, N = 4
[11] = human, plasma, oral, 7.5 mg, Regimen 2A 7.5 mg daily, Day 14, solid malignancies, N = 2
[12] = human, plasma, oral, 20 mg, Regimen 2A 20 mg daily, Day 14, solid malignancies, N = 4
[13] = human, plasma, oral, 20 mg, Regimen 2A 20 mg, Day 1 single dose, solid malignancies, N = 5
[14] = human, plasma, oral, 250 mg, Regimen 1A 250 mg, Day 1 single dose, solid malignancies, N = 6
[15] = human, plasma, oral, 350 mg, Regimen 1A 350 mg, Day 1 single dose, solid malignancies, N = 5

## COc1ncc(-c2nc3c(n2C(C)C)[C@H](c2ccc(Cl)cc2)N(c2cc(Cl)cn(C)c2=O)C3=O)c(OC)n1 [HDM201, (S)-5-(5-Chloro-1-methyl-2-oxo-1,2-dihydro-pyridin-3-yl)-6-(4-chloro-phenyl)-2-(2,4-dimethoxy-pyrimidin-5-yl)-1-isopropyl-5,6-dihydro-1H-pyrrolo[3,4-d]imidazol-4-one]
[1]
  AUClast (0-24 h), Geo Mean (% CV): 1483.1 ng·h/mL
  Cmax, Geo Mean (% CV): 118.0 ng/mL
  T½, Geo Mean (% CV): 7.2 h
[2]
  AUClast (0-24 h), Geo Mean (% CV): 1773.6 ng·h/mL
  T½, Geo Mean (% CV): 31.1 h
[3]
  AUClast (0-24 h), Geo Mean (% CV): 8028.8 (25.6) ng * hr/mL
  Cmax, Geo Mean (% CV): 467.0 (13.0) ng/mL
[4]
  AUClast (0-24 h), Geo Mean (% CV): 14287.0 (58.5) ng * hr/mL
  Cmax, Geo Mean (% CV): 663.3 (30.1) ng/mL
[5]
  AUClast (0-24 h), Geo Mean (% CV): 26255.2 (56.2) ng * hr/mL
  Cmax, Geo Mean (% CV): 1168.8 (43.7) ng/mL
[6]
  AUClast (0-24 h), Geo Mean (% CV): 99.5 ng·h/mL
  Cmax, Geo Mean (% CV): 14.9 ng/mL
Regimen 2A 1 mg, Day 1 single dose, solid malignancies, N = 1
  AUClast (0-24 h), Geo Mean (% CV): 134.3 ng·h/mL
[7]
  AUClast (0-24 h), Geo Mean (% CV): 109.3 (6.0) ng * hr/mL
  Cmax, Geo Mean (% CV): 17.5 (4.9) ng/mL
Regimen 2A 2 mg, Day 1 single dose, solid malignancies, N = 2
  AUClast (0-24 h), Geo Mean (% CV): 169.1 (31.5) ng * hr/mL
[8]
  AUClast (0-24 h), Geo Mean (% CV): 155.0 (21.7) ng * hr/mL
  Cmax, Geo Mean (% CV): 25.6 (23.9) ng/mL
Regimen 2A 4 mg, Day 1 single dose, solid malignancies, N = 4
  Cmax, Geo Mean (% CV): 17.6 (22.8) ng/mL
Regimen 2A 7.5 mg, Day 1 single dose, solid malignancies, N = 4
  AUClast (0-24 h), Geo Mean (% CV): 598.1 (49.8) ng * hr/mL
[9]
  AUClast (0-24 h), Geo Mean (% CV): 688.8 (29.2) ng * hr/mL
  Cmax, Geo Mean (% CV): 106.0 (27.9) ng/mL
[10]
  AUClast (0-24 h), Geo Mean (% CV): 1301.6 (71.0) ng * hr/mL
  Cmax, Geo Mean (% CV): 91.5 (56.9) ng/mL
Daily dosing
  accumulation upon daily dosing: limited accumulation
Daily dosing regimen
  accumulation: less than 2 fold
  steady-state reached by: ≤ 8 days
human, plasma, oral, 1 mg, Regimen 2A 1 mg daily, Day 14, solid malignancies, N = 1, read-out: Tmax, median
  Tmax: 4 h
human, plasma, oral, 1 mg, Regimen 2A 1 mg, Day 1 single dose, solid malignancies, N = 1
  Cmax: 7.9 ng/mL
human, plasma, oral, 1 mg, Regimen 2A 1 mg, Day 1 single dose, solid malignancies, N = 1, read-out: Tmax, median
  Tmax: 8 h
human, plasma, oral, 2 mg, Regimen 2A 2 mg daily, Day 14, solid malignancies, N = 2, read-out: Tmax, median
  Tmax: 3.9 h
human, plasma, oral, 2 mg, Regimen 2A 2 mg, Day 1 single dose, solid malignancies, N = 2
  Cmax: 12 ng/mL
human, plasma, oral, 2 mg, Regimen 2A 2 mg, Day 1 single dose, solid malignancies, N = 2, read-out: Tmax, median
  Tmax: 3.4 h
human, plasma, oral, 4 mg, Regimen 2A 4 mg daily, Day 14, solid malignancies, N = 3, read-out: Tmax, median
  Tmax: 4 h
human, plasma, oral, 4 mg, Regimen 2A 4 mg, Day 1 single dose, solid malignancies, N = 4
  AUC(0-t): 193 ng·h/mL
human, plasma, oral, 4 mg, Regimen 2A 4 mg, Day 1 single dose, solid malignancies, N = 4, read-out: Tmax, median
  Tmax: 2.5 h
[11]
  AUC(0-t): 222 ng·h/mL
  Cmax: 36.1 ng/mL
human, plasma, oral, 7.5 mg, Regimen 2A 7.5 mg daily, Day 14, solid malignancies, N = 2, read-out: Tmax, median
  Tmax: 3.9 h
human, plasma, oral, 7.5 mg, Regimen 2A 7.5 mg, Day 1 single dose, solid malignancies, N = 4
  Cmax: 39 ng/mL
human, plasma, oral, 7.5 mg, Regimen 2A 7.5 mg, Day 1 single dose, solid malignancies, N = 4, read-out: Tmax, median
  Tmax: 5.8 h
human, plasma, oral, 12.5 mg, Regimen 1A 12.5 mg, Day 1 single dose, solid malignancies, N = 1, read-out: Tmax, median
  Tmax: 3.2 h
human, plasma, oral, 15 mg, Regimen 2A 15 mg daily, Day 14, solid malignancies, N = 4, read-out: Tmax, median
  Tmax: 3 h
human, plasma, oral, 15 mg, Regimen 2A 15 mg, Day 1 single dose, solid malignancies, N = 4, read-out: Tmax, median
  Tmax: 3.1 h
[12]
  AUC(0-t): 1260 ng·h/mL
  Cmax: 214 ng/mL
human, plasma, oral, 20 mg, Regimen 2A 20 mg daily, Day 14, solid malignancies, N = 4, read-out: Tmax, median
  Tmax: 4 h
[13]
  AUC(0-t): 2300 ng·h/mL
  Cmax: 164 ng/mL
human, plasma, oral, 20 mg, Regimen 2A 20 mg, Day 1 single dose, solid malignancies, N = 5, read-out: Tmax, median
  Tmax: 2 h
human, plasma, oral, 25 mg, Regimen 1A 25 mg, Day 1 single dose, solid malignancies, N = 1
  Cmax: 100 ng/mL
human, plasma, oral, 25 mg, Regimen 1A 25 mg, Day 1 single dose, solid malignancies, N = 1, read-out: Tmax, median
  Tmax: 2.1 h
human, plasma, oral, 50 mg, Regimen 1A 50 mg, Day 1 single dose, solid malignancies, N = 4, read-out: Tmax, median
  Tmax: 3 h
human, plasma, oral, 50 mg, Regimen 1A 50 mg, Day 1 single dose, solid malignancies, N = 4, read-out: T½, Geo Mean (% CV) (converted)
  half-life: 11.8 h
human, plasma, oral, 100 mg, Regimen 1A 100 mg, Day 1 single dose, solid malignancies, N = 3, read-out: T½, Geo Mean (% CV) (converted)
  half-life: 16.3 h
human, plasma, oral, 100 mg, Regimen 1A 100 mg, Day 1 single dose, solid malignancies, N = 4, read-out: Tmax, median
  Tmax: 3.5 h
human, plasma, oral, 200 mg, Regimen 1A 200 mg, Day 1 single dose, solid malignancies, N = 4, read-out: T½, Geo Mean (% CV) (converted)
  half-life: 15.1 h
human, plasma, oral, 200 mg, Regimen 1A 200 mg, Day 1 single dose, solid malignancies, N = 5, read-out: Tmax, median
  Tmax: 3 h
human, plasma, oral, 250 mg, Regimen 1A 250 mg, Day 1 single dose, solid malignancies, N = 5, read-out: T½, Geo Mean (% CV) (converted)
  half-life: 15.3 h
[14]
  AUC(0-t): 23900 ng·h/mL
  Cmax: 1070 ng/mL
human, plasma, oral, 250 mg, Regimen 1A 250 mg, Day 1 single dose, solid malignancies, N = 6, read-out: Tmax, median
  Tmax: 3.5 h
human, plasma, oral, 350 mg, Regimen 1A 350 mg, Day 1 single dose, solid malignancies, N = 4, read-out: T½, Geo Mean (% CV) (converted)
  half-life: 15.1 h
[15]
  AUC(0-t): 50500 ng·h/mL
  Cmax: 1940 ng/mL
human, plasma, oral, 350 mg, Regimen 1A 350 mg, Day 1 single dose, solid malignancies, N = 5, read-out: Tmax, median
  Tmax: 4.1 h
human, plasma, oral, after Day 1 single dose (50-350 mg), read-out: Median half-life
  half-life: 13.7 to 23.1 h
human, plasma, oral, after a single dose (50 to 350 mg), read-out: Mean T½
  half-life: 11.8 to 16.3 h
human, plasma, oral, population PK, 1-compartment model, read-out: apparent volume of distribution of the central compartment (Vc/F), mean population estimate
  Vd/F: 119 L
human, plasma, po, across dose range 2 to 350 mg, read-out: median time to reach maximum plasma concentrations (Tmax)
  Tmax: 2 to 5.8 h
  dose proportionality of PK (AUClast and Cmax): approximately dose proportional
Listed as NVP-HDM201
  dose proportionality of PK (AUClast and Cmax): no major deviations from dose proportionality
Population PK
  inter-individual variability of CL/F: 48%
  inter-individual variability of Vc/F: 30%
Population PK, 1-compartment model
  apparent oral clearance (CL/F), mean population estimate: 6.18 L/h
Regimen 1B 120 mg, out of 9 patients
  patients with estimated average concentration per cycle near or above tumor stasis concentration: 7
